Where “and” joins values, the source holds several entries; their conditions need not be identical. Equal values may be shown once.
Assays:
[1] = Chlorhexidine release from uncoated and polyelectrolyte-encapsulated particles (UV absorption); assay type: physicochemical; settings: H2O, water stored and agitated
Description: The content of chlorhexidine in the compound, made from 0.33M CaCl2 and 15 mg/ml chlorhexidine diacetate, was determined by UV-Vis absorption (Lambda 35, Perkin Elmer, USA). […] The chlorohexidine proportion in the spheres (0.33M CaCl2 group) was calculated to be 90%-99.9% when they were co-precipitated from 15 mg/ml chlorhexidine diacetate solution. […] However, after encapsulation polyelectrolyte flakes could be seen on the surface, with the original structure covered (FIG. 11, panel (b)). In order to measure chlorhexidine release over 400 mins, samples were water stored and agitated (Vortex-Genie 2, Germany) for the whole time period. […] There was a linear relationship between chlorhexidine release and time (r2=0.99) FIG. 11, panel (d)).

[2] = Thermo-gravimetric analysis (TGA); assay type: physicochemical; settings: TGA at 10° C./min in nitrogen, 50-800° C.
Description: The chlorhexidine chloride spheres (0.33M CaCl2 group) were analysed by Thermo-gravimetric analysis (TGA Q50, USA). Chlorhexidine diacetate crystals and CaCl2 powder (Sigma-Aldrich, C8106, Lot: SLBF7416V) were tested as comparisons. TGA was carried out at 10° C./min in a nitrogen atmosphere, over a temperature range of 50-800° C. The chlorhexidine proportion was further confirmed by the TGA result. […] The decomposition temperature of the chlorhexidine chloride spheres (210° C.) was higher than the chlorhexidine diacetate crystals (120° C.).

L929 cells [3] = assay: Cell proliferation assay (total DNA content, Hoechst 33258); assay type: cell-based, mouse
Description: To determine any increase in cell numbers over time following chlorhexidine spheres treatment, a cell proliferation assay was performed by analysing the total DNA content using a fluorimetric plate reader based assay (Hoechst dye, R. Rago analytical biochemistry, 1990, 191: 31-34). Briefly, the 96 well plates were collected at 24 and 48 hour time points, washed twice with PBS and stored at −20° C. The cells were thawed to room temperature and 100 μl distilled water was added to each well, incubated for another hour and refrozen to suspend DNA. After 24 hrs, cells were thawed again and 100 μl of the fluorochrome Hoechst 33258 (Sigma-Aldrich, UK) at the concentration 20 μg/ml in THE buffer (2M NaCl) was added to each well. The intensity of the fluorescence was then read at A 350 nm excitation and A 460 nm emissions.

L929 cells [4] = assay: Cytotoxicity assay (MTT); settings: for relative cellular viability: 0.001% chlorhexidine spheres
[5] = test system: Aggregatibacter actinomycetemcomitans (strain-Y4); assay: MIC and MBC of chlorhexidine spheres; assay type: cell-based; parameters: key to MIC/MBC class at this concentration: The MIC was defined as the lowest concentration of chlorhexidine spheres that inhibited the growth of microorganism at each time point; The MBC was the lowest concentration of chlorhexidine spheres giving no observable bacterial growth; settings: for MIC: planktonic A. actinomycetemcomitans
Description: (§1) The effectiveness of the chlorhexidine spheres against a panel of periodontal pathogens was evaluated by measurements of the growth (optical density) of bacterial cultures. Porphyromonas gingivalis (strain-W50), Fusobacterium nucleatum sub species polymorphum (strain-NCTC10562) and Aggregatibacter actinomycetemcomitans (strain-Y4) were grown on blood agar plates and in brain heart infusion (BHI) broth in an anaerobic environment with an atmosphere of 5% H2, 10% CO2, and 85% N2 at 37° C. for 2 days. BHI broth was pre-reduced with 5 μg/ml hemin and 5 μg/ml menadione bisulphite added. Bacterial numbers in the BHI cultures were determined and standardised by serial dilution and enumeration of colony forming units (CFUs) on agar plates. After overnight incubation, the bacterial suspensions were diluted 1:20 with fresh BHI medium to achieve an optical density of 0.1 for P. gingivalis and A. actinomycetemcomitans and 0.2 for F. nucleatum sub sp. polymorphum at 595 nm (OD595) to give approximately 6.5×10^7 colony-forming units (CFU) per ml.
(§2) Negative control (bacterial inoculum only but no chlorhexidine spheres) and blank (medium only) wells were also included. The microtiter plates were incubated for 0, 24 and 48 hours in anaerobic conditions as above and the optical density (OD) was determined at 595 nm to quantify bacterial growth. The MIC was defined as the lowest concentration of chlorhexidine spheres that inhibited the growth of microorganism at each time point. The MBC was the lowest concentration of chlorhexidine spheres giving no observable bacterial growth. MBC was determined following transfer of the microtiter well contents to micro centrifuge tubes, centrifuging to pellet the bacterial cells, washing to remove any remaining chlorhexidine spheres and incubation on blood agar plates. After incubation anaerobically growth of bacteria that had survived the treatment was recorded.

[6] = test system: Fusobacterium nucleatum sub species polymorphum (strain-NCTC10562); assay: MIC and MBC of chlorhexidine spheres; assay type: cell-based; parameters: key to MIC/MBC class at this concentration: The MIC was defined as the lowest concentration of chlorhexidine spheres that inhibited the growth of microorganism at each time point; The MBC was the lowest concentration of chlorhexidine spheres giving no observable bacterial growth; settings: for MBC: F. nucleatum sub sp. polymorphum; for MIC: planktonic F. nucleatum sub sp. polymorphum
Description: as §1, §2

[7] = test system: Porphyromonas gingivalis (strain-W50); assay: MIC and MBC of chlorhexidine spheres; assay type: cell-based; parameters: key to MIC/MBC class at this concentration: The MIC was defined as the lowest concentration of chlorhexidine spheres that inhibited the growth of microorganism at each time point; The MBC was the lowest concentration of chlorhexidine spheres giving no observable bacterial growth
Description: as §1, §2

[8] = 0.00025% chlorhexidine spheres, 24 hours
[9] = 0.00025% chlorhexidine spheres, 48 hours
[10] = 0.0005% chlorhexidine spheres, 24 hours
[11] = 0.0005% chlorhexidine spheres, 48 hours
[12] = 0.001% chlorhexidine spheres, 24 hours
[13] = 0.001% chlorhexidine spheres, 48 hours
[14] = 0.002% chlorhexidine spheres, 24 hours
[15] = 0.002% chlorhexidine spheres, 48 hours
[16] = planktonic P. gingivalis, 48 hours

time to dissolution [1]: ≤ 1 h | decomposition temperature [2]: 210 °C | MIC/MBC class at this concentration [5, 8]: MBC | MIC/MBC class at this concentration [5, 9]: MBC | MIC/MBC class at this concentration [5, 10]: MBC | MIC/MBC class at this concentration [5, 11]: MBC | MIC/MBC class at this concentration [5, 12]: MBC | MIC/MBC class at this concentration [5, 13]: MBC | MIC ([5]; 24 hours): 0.00025% | MIC ([5]; 48 hours): 0.00025% | MIC/MBC class at this concentration [6, 10]: No Inhibition | MIC/MBC class at this concentration [6, 11]: No Inhibition | MIC/MBC class at this concentration [6, 12]: MBC | MIC/MBC class at this concentration [6, 13]: MBC | MIC/MBC class at this concentration [6, 14]: MBC | MIC/MBC class at this concentration [6, 15]: MBC | MIC/MBC class at this concentration ([6]; 0.004% chlorhexidine spheres, 24 hours): MBC | MIC/MBC class at this concentration ([6]; 0.004% chlorhexidine spheres, 48 hours): MBC | threshold for inhibition (MIC) ([6]; F. nucleatum, time not stated): 0.001% | MIC ([6]; 24 hours): 0.0005% and 0.001% | MIC ([6]; 48 hours): 0.001% | MIC/MBC class at this concentration [7, 8]: MIC | MIC/MBC class at this concentration [7, 9]: MBC | MIC/MBC class at this concentration [7, 10]: MBC | MIC/MBC class at this concentration [7, 11]: MBC | MIC/MBC class at this concentration [7, 12]: MBC | MIC/MBC class at this concentration [7, 13]: MBC | MIC/MBC class at this concentration [7, 14]: MBC | MIC/MBC class at this concentration [7, 15]: MBC | MIC ([7]; planktonic P. gingivalis, 24 hours): 0.00025% | MIC [7, 16]: 0.00025%
Structure (SMILES): Cl.Cl.N=C(NCCCCCCNC(=N)NC(=N)Nc1ccc(Cl)cc1)NC(=N)Nc1ccc(Cl)cc1 [chlorhexidine spheres]
effect on L929 cell proliferation (in words) (L929 cells [3]; 0.00005% to 0.00025%, 24 and 48 hour treatment): induces proliferation | effect on L929 cell proliferation (in words) (L929 cells [3]; 0.0005%, 24 hour treatment): no proliferation | concentrations profoundly reducing cell proliferation (L929 cells [3]; L929 cells): > 0.0005% | concentrations significantly inhibiting proliferation (L929 cells [3]; L929 cells): ≥ 0.001% | cellular viability (L929 cells [4]; 0.00005% to 0.00025%, both 24 and 48 hours): approximately 90% | cellular viability (L929 cells [4]; 0.0005%, 24 hours): > 80% | cellular viability (L929 cells [4]; 0.0005%, 48 hours): below 70% | relative cellular viability (L929 cells [4]; 24 hours): approximately 50% | relative cellular viability (L929 cells [4]; 48 hours): 20% | concentrations demonstrating cytotoxicity (L929 cells [4]; L929 cells, viability below 70% of control regarded as toxic): above 0.0005% | concentrations with antimicrobial effect ([5]; A. actinomycetemcomitans): ≥ 0.00025% | MBC ([5]; A. actinomycetemcomitans, 24 and 48 hour cultures): 0.00025% | MBC ([6]; 24 hours): 0.001% | MBC ([6]; 48 hours): 0.001% | concentrations with antimicrobial effect ([7]; P. gingivalis): ≥ 0.00025% | MBC ([7]; P. gingivalis, 24 hours): 0.0005% | MBC [7, 16]: 0.00025%

— patent publication US10640463B2, “Chlorhexidine crystal forms and uses thereof in medicine” (Queen Mary University of London, priority 2016, dated 2020)
